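Step 1: Grow cells in 96-well plates. Step 2: Expose to compound for 48 hours at 5 concentrations. Step 3: Interpolate endpoints linearly; if unreached, use highest concentration. At the GI50, growth is halved.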 The source made the active and inactive calls. Rule as the data show it: active = GI50 up to about 1.1 µM and inactive = higher.
What was measured:
Experiment in all cases: NCI tumour cell line growth inhibition, 48 h
SK-MEL-2 = system: SK-MEL-2
HCT-15 = system: HCT-15
SK-MEL-5 = system: SK-MEL-5
UACC-257 = system: UACC-257
UO-31 = system: UO-31
CCRF-CEM = system: CCRF-CEM
NCI-H460 = system: NCI-H460
LXFL 529 = system: LXFL 529
XF498 = system: XF498
SF-295 = system: SF-295
K562 = system: K562
HOP-62 = system: HOP-62
SN12C = system: SN12C
SNB-78 = system: SNB-78
OVCAR-4 = system: OVCAR-4
ACHN = system: ACHN
SF-268 = system: SF-268
TK-10 = system: TK-10
RPMI-8226 = system: RPMI-8226
EKVX = system: EKVX
OVCAR-5 = system: OVCAR-5
KM12 = system: KM12
SNB-75 = system: SNB-75
OVCAR-3 = system: OVCAR-3
A549 = system: A549
Malme-3M = system: Malme-3M
SK-MEL-28 = system: SK-MEL-28
HT-29 = system: HT-29
KM-20L2 = system: KM-20L2
A498 = system: A498
M14 = system: M14
NCI-H522 = system: NCI-H522
MOLT-4 = system: MOLT-4
HCC 2998 = system: HCC 2998
OVCAR-8 = system: OVCAR-8
DLD-1 = system: DLD-1
U-251 = system: U-251
786-0 = system: 786-0
SW-620 = system: SW-620
SNB-19 = system: SNB-19
NCI-H23 = system: NCI-H23
CAKI-1 = system: CAKI-1
NCI-H226 = system: NCI-H226
HL-60 = system: HL-60
RXF 393 = system: RXF 393
MDA-MB-435 = system: MDA-MB-435
DU-145 = system: DU-145
Hs-578T = system: Hs-578T
MDA-N = system: MDA-N
SR = system: SR
HCT-116 = system: HCT-116
LOX IMVI = system: LOX IMVI
SK-OV-3 = system: SK-OV-3
COLO 205 = system: COLO 205
IGROV-1 = system: IGROV-1
T47D = system: T47D
SF-539 = system: SF-539
PC-3 = system: PC-3
UACC-62 = system: UACC-62
BT-549 = system: BT-549
MCF7 = system: MCF7
NCI/ADR-RES = system: NCI/ADR-RES
HOP-92 = system: HOP-92
MDA-MB-231 = system: MDA-MB-231

SMILES: COc1cccc(Cc2c3cc(OC)ccc3cc[n+]2C)c1
- GI50 (SK-MEL-2): 72.6 µM (inactive)
- GI50 (HCT-15): > 100 µM
- GI50 (SK-MEL-5): 22.4 µM (inactive)
- GI50 (UACC-257): 21.4 µM (inactive)
- GI50 (UO-31): > 100 µM (inactive)
- GI50 (CCRF-CEM): 87.3 µM (inactive)
- GI50 (NCI-H460): > 100 µM (inactive)
- GI50 (LXFL 529): 36.4 µM (inactive)
- GI50 (XF498): 12.4 µM (inactive)
- GI50 (SF-295): > 100 µM (inactive)
- GI50 (K562): 36 µM (inactive)
- GI50 (HOP-62): > 100 µM (inactive)
- GI50 (SN12C): 32.6 µM (inactive)
- GI50 (SNB-78): > 100 µM (inactive)
- GI50 (OVCAR-4): 58.5 µM (inactive)
- GI50 (ACHN): > 100 µM (inactive)
- GI50 (SF-268): 36.2 µM (inactive)
- GI50 (TK-10): > 100 µM (inactive)
- GI50 (RPMI-8226): 24.7 µM (inactive)
- GI50 (EKVX): > 100 µM (inactive)
- GI50 (OVCAR-5): > 100 µM (inactive)
- GI50 (KM12): 40.5 µM (inactive)
- GI50 (SNB-75): 32.8 µM (inactive)
- GI50 (OVCAR-3): 47.5 µM (inactive)
- GI50 (A549): > 100 µM (inactive)
- GI50 (Malme-3M): > 100 µM (inactive)
- GI50 (SK-MEL-28): 33.9 µM (inactive)
- GI50 (HT-29): 30.3 µM (inactive)
- GI50 (KM-20L2): 65.5 µM (inactive)
- GI50 (A498): > 100 µM (inactive)
- GI50 (M14): 67.5 µM (inactive)
- GI50 (NCI-H522): 22.9 µM (inactive)
- GI50 (MOLT-4): > 100 µM (inactive)
- GI50 (HCC 2998): 87.9 µM (inactive)
- GI50 (OVCAR-8): 73.6 µM (inactive)
- GI50 (DLD-1): > 100 µM (inactive)
- GI50 (U-251): 53.2 µM (inactive)
- GI50 (786-0): > 100 µM (inactive)
- GI50 (SW-620): > 100 µM (inactive)
- GI50 (SNB-19): 43.1 µM (inactive)
- GI50 (NCI-H23): 26.6 µM (inactive)
- GI50 (CAKI-1): > 100 µM (inactive)

SMILES: CC1/C=C/C=C/CC/C=C/C=C/C=C/C=C/C(OC2OC(C)C(O)C(N)C2O)CC2OC(CC(O)C(O)CCC(O)CC(O)CC(O)CC(=O)OC(C)C(C)C1O)CC(O)C2C(=O)O (stereo not given)
- GI50 (SK-MEL-2): 28.6 µM (inactive)
- GI50 (HCT-15): 27.3 µM
- GI50 (SK-MEL-5): 19.7 µM (inactive)
- GI50 (NCI-H226): 13.5 µM (inactive)
- GI50 (HL-60): 23.9 µM (inactive)
- GI50 (UACC-257): 17 µM (inactive)
- GI50 (UO-31): 21 µM (inactive)
- GI50 (RXF 393): 13.8 µM (inactive)
- GI50 (CCRF-CEM): 28.8 µM (inactive)
- GI50 (NCI-H460): 17.5 µM (inactive)
- GI50 (MDA-MB-435): 17.6 µM (inactive)
- GI50 (SF-295): 22.3 µM (inactive)
- GI50 (K562): 34.4 µM (inactive)
- GI50 (HOP-62): 19.4 µM (inactive)
- GI50 (DU-145): 17.7 µM (inactive)
- GI50 (SN12C): 15.9 µM (inactive)
- GI50 (Hs-578T): 24.8 µM (inactive)
- GI50 (OVCAR-4): 15.2 µM (inactive)
- GI50 (MDA-N): 17.3 µM (inactive)
- GI50 (ACHN): 17.7 µM (inactive)
- GI50 (SR): 16.9 µM (inactive)
- GI50 (SF-268): 24.9 µM (inactive)
- GI50 (TK-10): 17.5 µM (inactive)
- GI50 (RPMI-8226): 22.6 µM (inactive)
- GI50 (EKVX): 16.7 µM (inactive)
- GI50 (OVCAR-5): 17.9 µM (inactive)
- GI50 (KM12): 26.8 µM (inactive)
- GI50 (HCT-116): 17.2 µM (inactive)
- GI50 (LOX IMVI): 18.2 µM (inactive)
- GI50 (SNB-75): 18.6 µM (inactive)
- GI50 (OVCAR-3): 20 µM (inactive)
- GI50 (SK-OV-3): 23.2 µM (inactive)
- GI50 (A549): 18 µM (inactive)
- GI50 (Malme-3M): 17.9 µM (inactive)
- GI50 (SK-MEL-28): 19.7 µM (inactive)
- GI50 (HT-29): 17.3 µM (inactive)
- GI50 (COLO 205): 21.8 µM (inactive)
- GI50 (A498): 18.7 µM (inactive)
- GI50 (IGROV-1): 17.6 µM (inactive)
- GI50 (M14): 19.7 µM (inactive)
- GI50 (T47D): 57.1 µM (inactive)
- GI50 (NCI-H522): 19.3 µM (inactive)
- GI50 (MOLT-4): 20.2 µM (inactive)
- GI50 (HCC 2998): 14.8 µM (inactive)
- GI50 (OVCAR-8): 21.6 µM (inactive)
- GI50 (SF-539): 16.1 µM (inactive)
- GI50 (U-251): 17.4 µM (inactive)
- GI50 (PC-3): 18.8 µM (inactive)
- GI50 (UACC-62): 20.9 µM (inactive)
- GI50 (786-0): 17 µM (inactive)
- GI50 (BT-549): 17 µM (inactive)
- GI50 (SW-620): 20.7 µM (inactive)
- GI50 (SNB-19): 18.3 µM (inactive)
- GI50 (NCI-H23): 18.1 µM (inactive)
- GI50 (MCF7): 17.5 µM (inactive)
- GI50 (NCI/ADR-RES): 21.3 µM (inactive)
- GI50 (CAKI-1): 17.5 µM (inactive)
- GI50 (HOP-92): 45.6 µM (inactive)
- GI50 (MDA-MB-231): 17.6 µM (inactive)

SMILES: COC(=O)c1cc2c(cc1CC(Cc1ccc3c(c1)CCC3)C(=O)OC)CCC2 (stereo not given)
- GI50 (SK-MEL-2): 44.1 µM (inactive)
- GI50 (HCT-15): 39.2 µM
- GI50 (SK-MEL-5): 17.6 µM (inactive)
- GI50 (NCI-H226): 7.24 µM (inactive)
- GI50 (HL-60): 8.61 µM (inactive)
- GI50 (UACC-257): 13.7 µM (inactive)
- GI50 (UO-31): 63.7 µM (inactive)
- GI50 (RXF 393): 18.1 µM (inactive)
- GI50 (CCRF-CEM): 29.1 µM (inactive)
- GI50 (NCI-H460): 65.5 µM (inactive)
- GI50 (MDA-MB-435): 31 µM (inactive)
- GI50 (SF-295): 84.5 µM (inactive)
- GI50 (K562): 34.2 µM (inactive)
- GI50 (HOP-62): > 100 µM (inactive)
- GI50 (DU-145): 83.8 µM (inactive)
- GI50 (SN12C): > 100 µM (inactive)
- GI50 (Hs-578T): 66.2 µM (inactive)
- GI50 (OVCAR-4): 24 µM (inactive)
- GI50 (MDA-N): 38 µM (inactive)
- GI50 (ACHN): 45.7 µM (inactive)
- GI50 (SR): 11 µM (inactive)
- GI50 (SF-268): 54.6 µM (inactive)
- GI50 (TK-10): 88.5 µM (inactive)
- GI50 (RPMI-8226): 16.5 µM (inactive)
- GI50 (EKVX): 27 µM (inactive)
- GI50 (OVCAR-5): 60.7 µM (inactive)
- GI50 (KM12): 46.1 µM (inactive)
- GI50 (HCT-116): 40.7 µM (inactive)
- GI50 (LOX IMVI): 40.6 µM (inactive)
- GI50 (SNB-75): 22.9 µM (inactive)
- GI50 (OVCAR-3): > 100 µM (inactive)
- GI50 (SK-OV-3): 60.1 µM (inactive)
- GI50 (A549): 34 µM (inactive)
- GI50 (Malme-3M): 41.3 µM (inactive)
- GI50 (SK-MEL-28): 84.1 µM (inactive)
- GI50 (HT-29): 26.1 µM (inactive)
- GI50 (COLO 205): 29.5 µM (inactive)
- GI50 (A498): > 100 µM (inactive)
- GI50 (IGROV-1): > 100 µM (inactive)
- GI50 (M14): 72.8 µM (inactive)
- GI50 (T47D): 26.8 µM (inactive)
- GI50 (NCI-H522): 22.2 µM (inactive)
- GI50 (MOLT-4): 26.9 µM (inactive)
- GI50 (HCC 2998): 34.5 µM (inactive)
- GI50 (OVCAR-8): > 100 µM (inactive)
- GI50 (SF-539): 35 µM (inactive)
- GI50 (U-251): 50.9 µM (inactive)
- GI50 (PC-3): 16.6 µM (inactive)
- GI50 (UACC-62): > 100 µM (inactive)
- GI50 (786-0): 51.4 µM (inactive)
- GI50 (BT-549): > 100 µM (inactive)
- GI50 (SW-620): 74 µM (inactive)
- GI50 (SNB-19): > 100 µM (inactive)
- GI50 (NCI-H23): 63.5 µM (inactive)
- GI50 (MCF7): 24.8 µM (inactive)
- GI50 (NCI/ADR-RES): 57.5 µM (inactive)
- GI50 (CAKI-1): > 100 µM (inactive)
- GI50 (HOP-92): 21 µM (inactive)
- GI50 (MDA-MB-231): 70.6 µM (inactive)

From ChEMBL document CHEMBL1201862, “PubChem BioAssay data set” (2004)
